Values quoted from earlier work in patent CN110812364A, “半乳寡糖及其衍生物在作为SGLTs抑制剂中的应用” (Ocean University of China, priority 2019, dated 2020).

Molecular target: T1, SGLT2 (Homo sapiens, UniProt P31639)
T1 sequence (P31639 1-672): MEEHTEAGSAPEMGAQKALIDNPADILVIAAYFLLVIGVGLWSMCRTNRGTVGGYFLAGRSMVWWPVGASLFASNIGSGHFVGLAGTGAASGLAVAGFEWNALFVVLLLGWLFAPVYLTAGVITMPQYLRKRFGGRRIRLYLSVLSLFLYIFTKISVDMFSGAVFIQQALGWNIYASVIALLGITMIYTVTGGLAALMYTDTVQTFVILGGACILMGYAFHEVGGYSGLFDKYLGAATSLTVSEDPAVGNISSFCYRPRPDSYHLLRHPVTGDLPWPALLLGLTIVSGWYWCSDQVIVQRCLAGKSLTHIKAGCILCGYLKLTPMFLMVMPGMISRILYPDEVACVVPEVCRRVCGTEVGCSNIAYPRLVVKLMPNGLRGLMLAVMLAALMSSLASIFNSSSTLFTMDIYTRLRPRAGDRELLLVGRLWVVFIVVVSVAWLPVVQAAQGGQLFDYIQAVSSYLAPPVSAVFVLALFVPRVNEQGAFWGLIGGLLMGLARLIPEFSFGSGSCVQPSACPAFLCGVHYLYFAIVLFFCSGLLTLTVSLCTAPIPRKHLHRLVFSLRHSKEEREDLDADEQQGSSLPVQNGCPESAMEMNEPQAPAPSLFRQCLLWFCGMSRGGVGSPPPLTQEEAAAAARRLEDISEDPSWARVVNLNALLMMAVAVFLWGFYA
Details: dual inhibitor of SGLT1 and SGLT2, background section

- selectivity for SGLT1 and SGLT2: 选择性较差
Structure (SMILES): O=C(CCc1ccc(O)cc1)c1c(O)cc(O)cc1O[C@@H]1O[C@H](CO)[C@@H](O)[C@H](O)[C@H]1O [根皮苷, 根皮苷(phloridzin)]
